Legend:
[1] = target: BAX (Homo sapiens, UniProt Q07812); assay: 1H-15N HSQC NMR chemical shift perturbations with 15N-labelled BAX; format: binding; parameters: NMR experiments used full-length WT BAX at a concentration of 200 μM; made in house; host or cells: Escherichia coli BL21-AI (minimal media, 15N); details: 200 uM BAX
Protocol: All experiments were performed using an independent sample for each measurement and were DMSO matched to account for environment changes due to the solvent. ^15N-labeled BAX was prepared as described above in 50 mM potassium phosphate pH 6, 50 mM NaCl, and 10% D2O. Samples were mixed before loading 40 μL in a 1.7 mm sample tube. […] NMR experiments used full-length WT BAX at a concentration of 200 μM. Experiments were conducted on a 600 MHz Bruker Avance magnet at 25° C. Chemical shift perturbations (CSP) were calculated in CCPNMRv3 using an automated analysis, where all peaks were matched to their extrema and calculated using the equation: […]
In the CSP equation above, α denotes the relative weighting of chemical shift changes of the ^15N relative to ^1H nuclei. ΔδHX and ΔδNx are the observed changes of the proton and nitrogen chemical shifts for residue x, respectively. As a note, all amino acid positions on the HSQC were manually inspected to use the extrema of the nearest identified peak. The absence of a bar in the CSP graph indicates no chemical shift, the presence of a proline, or a missing residue peak not used for analysis. Significance threshold was calculated as the average of chemical shifts across all residues plus the standard deviation. […]

[2] = tested on: diverse panel of 58 kinases; assay: Kinase panel (Eurofins KinaseProfiler); format: biochemical; details: 1 uM
Protocol: For the kinase panel, % inhibition was measured using standardized assay conditions at the KinaseProfiler service (Eurofins Pharma Discovery Services). Compounds were sent for testing as dry powder.

[3] = target: T1, V83W L120W BAX (Homo sapiens, UniProt Q07812, L120W/V83W); assay: ANTS/DPX liposome permeabilization with BAX mutant; format: biochemical; details: 100 nM V83W L120W BAX, 20 nM cBID, 20 uM compound
T1 construct: made in house
Protocol: For ANTS/DPX dye release assays: ANTS (fluorophore; excitation 355 nm, emission 520 nm) and DPX (collisional quencher) are encapsulated in reconstituted liposomes. When the membrane is permeabilized, ANTS and DPX diffuse to the outside of the liposomes, decreasing the effective concentration DPX and therefore quenching by […] is decreased and ANTS fluorescence increases. ANTS/DPX liposomes (8 uL of mg/mL liposome preparation per 100 μL of reaction) were added to individual wells of multi-well plates (100 μL final volume for 96 well plates or (30 μL total volume for 384 well plates) in assay buffer (10 mM HEPES pH 7.2, 200 mM KCl, and 5 mM MgCl2). The background fluorescence of the liposomes and the compound dissolved in DMSO was measured for 10 minutes to ensure fluorescent signal stabilized (F0). Unless explicitly stated, 20 nM cBID and 100 nM BAX were added sequentially to each well and mixed thoroughly. The fluorescence intensity of ANTS was measured every minute for 2-3 hours until the signal stabilizes at a plateau (F). […] The plate was then read a third time to assess the fluorescence of ANTS upon full dissociation of liposomes in each well (F100). The percentage of dye release from the liposomes due to the action of cBID and BAX is calculated as: […]

T1 sequence (Q07812 whole entry V83W/L120W): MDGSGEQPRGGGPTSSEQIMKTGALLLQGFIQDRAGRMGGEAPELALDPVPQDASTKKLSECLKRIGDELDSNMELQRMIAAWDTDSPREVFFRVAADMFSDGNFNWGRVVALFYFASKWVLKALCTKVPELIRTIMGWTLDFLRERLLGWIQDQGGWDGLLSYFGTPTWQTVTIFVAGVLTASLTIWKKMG
Chain of BAX (Q07812 whole entry): as the sequence (Q07812 whole entry V83W/L120W) above, with W83V, W120L counted along it

| Structure (SMILES) | binding to BAX (chemical shift perturbations) [1] | activity across kinase panel (percent kinase inhibition) [2] | inhibition of mutant BAX [3] |
| --- | --- | --- | --- |
| COc1cc2ccnc(Nc3ccc(F)c(Cl)c3)c2cc1NC(=O)CCCN1CCCCC1 [Compound I-1, N-(1-((3-chloro-4-fluorophenyl)amino)-6-methoxyisoquinolin-7-yl)-4-(piperidin-1-yl)butanamide] | bind the cytosolic conformation of BAX | minimal activity |  |
| COc1cc2ncnc(Nc3ccc(F)c(Cl)c3)c2cc1NC(=O)/C=C/CN1CCCCC1 [Dacomitinib, reference compound] |  |  | reduced inhibition |
